In brackets after ≈: the same amount, converted by molar mass. Like-named read-outs stand apart in the source and are kept apart here.
How the values were obtained:
E. coli = assay: high throughput screening assay for antibacterial activity; type: cell-based; details: Escherichia coli; crude compounds, against E. coli; read-out: minimum inhibitory concentrations (MIC's)
From the text: This activity was verified by manual solution synthesis of analytically pure material as described in Example 6 above, which had identical activity.

[1] = system: 23S rRNA fragment / L11 protein fragment; assay: L11/thiostrepton SPA assay; type: binding; details: positive control, RNA under destabilizing conditions
From the text: The mode of action of thiostrepton appears to be to stabilize a region of the 23S rRNA and by doing so prevent a structural transition in the L11 protein. Among the many assays that look at RNA/protein interactions, an SPA assay has been designed to look for small molecules that could be effective as thiostrepton ‘like’ agents. This assay uses a radiolabeled small fragment of the 23S rRNA, a biotinylated 75 amino acid fragment of the L11 protein that contains the 23S rRNA binding domain and thiostrepton. The folding conditions of the secondary and tertiary structures of the 23S rRNA fragment have been examined as have the binding conditions of the L11 fragment to the 23S rRNA. The L11-thiostrepton assay has been optimized so that the 23S rRNA fragment is in an unfolded state prior to the addition of compounds. Addition of the L11 fragment to this unfolded RNA results in no detectable binding interaction. The high throughput assay is run by mixing the 23S rRNA fragment, under destabilizing conditions, with compounds of interest, incubating this mixture, and then adding the L11 fragment. Streptavidin-coated SPA beads are added for binding detection. Thiostrepton is used as a positive control.

[2] = cited from earlier work
[3] = system: TAR RNA interaction with tat peptide; assay: disruption of TAR RNA interaction with tat peptide; type: binding, HIV
[4] = biological target: luciferase mRNA containing the TAR RNA structure in the 5′-UTR; assay: wheat germ lysate translation of luciferase mRNA containing TAR RNA structure; type: biochemical, HIV; details: luciferase mRNA with TAR RNA structure in the 5′-UTR, read-out: concentration reducing translation by 50%
From the text: It is believed that stabilization of mRNA structures near the 5′-cap also could be effected by specific “small” molecules, and that such binding would reduce the translational efficiency of the mRNA. To test this hypothesis, a plasmid was constructed containing the luciferase message behind a 5′-UTR containing a 27-mer RNA construct of the HIV TAR stem-loop bulge whose structure had been determined by NMR. The resulting mRNA could be expressed and capped in a wheat germ lysate translation system supplemented with T7 polymerase following addition of m^7G to the lysate (see, FIG. 38A). Insertion of a 9-base leader before the TAR structure (HIVluc+9) enhanced the translational efficiency, presumably by allowing the pre-initiation complex to form. The helicase activity associated with the pre-initiation complex can transiently melt out the TAR RNA structure, and the message is translated (see, FIG. 38A).

[5] = system: luciferase mRNA (control luc+9); assay: wheat germ lysate translation of control luciferase mRNA; type: biochemical; details: control mRNA without TAR
From the text: It is believed that stabilization of mRNA structures near the 5′-cap also could be effected by specific “small” molecules, and that such binding would reduce the translational efficiency of the mRNA. To test this hypothesis, a plasmid was constructed containing the luciferase message behind a 5′-UTR containing a 27-mer RNA construct of the HIV TAR stem-loop bulge whose structure had been determined by NMR.

TAR = details: in words, FIG. 36
[6] = biological target: 27-mer model RNA sequence of the 16S A-site; assay: MASS assay (mass spectrometry binding affinity); details: 27-mer model RNA of the 16S A-site
From the text: One mass spectrometric method which is particularly useful when combined with the techniques of the foregoing commonly owned inventions provides the determination of specificity and affinity of ligands to RNA targets. MASS (multi target affinity/specificity screening) techniques can provide high throughput screening methods to analyze the specificity and affinity of ligands to molecular interaction sites of nucleic acids, especially RNA. […]
Binding site information can be obtained by comparing the gas phase fragmentation patterns of the free and complexed target while relative binding constants are derived from the relative abundance of complexes using a complex with a known Kd as an internal standard. With knowledge of the specificity and affinity of ligands to the molecular interaction site of a target RNA, the desired lead or ultimate compound for modulation of the RNA can be determined.
The compounds are screened for binding affinity using MASS or conventional high-throughput functional screens. […] The MASS assay was performed with the 27-mer model RNA sequence of the 16S A-site whose NMR structure has been determined. […]

luciferase reporter = assay: transcription/translation assay based on expression of a luciferase plasmid; type: biochemical
Experimental: The compounds are screened for binding affinity using MASS or conventional high-throughput functional screens. The best scoring compounds from docking a 256-member library against the 16S A-site ribosomal RNA structure are shown in the table below. The MASS assay was performed with the 27-mer model RNA sequence of the 16S A-site whose NMR structure has been determined. The transcription/translation assay was based on expression of a luciferase plasmid.

[7] = biological target: 27-mer RNA containing the A-site of the 16S rRNA; details: cited from earlier work

Compound `O=C(NO)[C@@H](Cc1ccc2ccccc2c1)NS(=O)(=O)c1ccc2ccccc2c1` [Compound 5-n-ii, (2R)-3-(2-naphthyl)-2-((2-naphthylsulfonyl)amino)propanehydroxamic Acid] has an MIC (E. coli) of 0.7 to 1.5 µM (≈ 0.294 to 0.631 µg/mL).

In the case of `C=C(NC(=O)C(=C)NC(=O)c1csc(C2=N[C@@H]3c4csc(n4)[C@H]4NC(=O)c5csc(n5)[C@H]([C@](C)(O)[C@@H](C)O)NC(=O)[C@H]5CSC(=N5)/C(=C/C)NC(=O)[C@H]([C@@H](C)O)NC(=O)c5csc(n5)[C@]3(CC2)NC(=O)[C@H](C)NC(=O)C(=C)NC(=O)[C@H](C)NC(=O)[C@H]([C@@H](C)CC)N[C@@H]2C=Cc3c([C@H](C)O)cc(nc3[C@H]2O)C(=O)O[C@@H]4C)n1)C(N)=O` [thiostrepton], the “L11 fragment binding to 23S rRNA fragment (SPA signal)” value [1] is given as “allows the L11 fragment to bind leading to the generation of a signal” and the solubility [2] is given as “very poor solubility”.

With `O=C(NO)[C@@H](Cc1ccc2ccccc2c1)NS(=O)(=O)c1ccc(Br)cc1` [Compound 5-n-vi, (2R)-2-(((4-bromophenyl)sulfonyl)amino)-3-(2-naphthyl)propanehydroxamic Acid] the MIC (E. coli) was 3 to 6 µM (≈ 1.35 to 2.7 µg/mL).

For `CNc1ccc(NCCO)c2c1C(=O)c1ccccc1C2=O` [ACD 00001199], the “concentration at which the interaction of TAR RNA with tat peptide is disrupted” value [3] was 1 µM, the IC50 [4] was 50 µM and the “inhibition of translation of the luciferase mRNA” value [5] was “some inhibition of translation at very high concentrations”. The IC50 values (TAR) was “low”.

In the case of `NC[C@@H]1O[C@H](O[C@H]2[C@@H](O)[C@H](O[C@@H]3[C@@H](O)[C@H](N)C[C@H](N)[C@H]3O[C@H]3O[C@H](CO)[C@@H](O)[C@H](O)[C@H]3N)O[C@@H]2CO)[C@H](N)[C@@H](O)[C@@H]1O` [Paromomycin], the Kd [6] is given as 0.5 µM, the “Activity: Inhibition of protein synthesis in transcription/translation assay for luciferase reporter” value (luciferase reporter) is given as 0.3 µM and the Kd ([7]; 27-mer RNA containing the A-site of the 16S rRNA, known value, read-out: Kd, binding to the unpaired adenosine residues) is given as 0.2 µM. For the same compound, the Kd ([7]; standard, known from other experiments or literature, read-out: binding affinity for a test 27-mer RNA) was about 1 µM.
